According to paper PMC7224190, “Pharmacological inhibition of PRMT7 links arginine monomethylation to the cellular stress response” (Nature Communications, 2020):

Assays:
Test in all cases: biochemical
Design in all cases: radiometric methyltransferase selectivity assay with tritiated SAM, per cent activity
Conditions in all cases: read-out: % of control remaining
BCDIN3D = molecular target: T1, BCDIN3D (Homo sapiens, UniProt Q7Z5W3)
T1 sequence (Q7Z5W3 1-292): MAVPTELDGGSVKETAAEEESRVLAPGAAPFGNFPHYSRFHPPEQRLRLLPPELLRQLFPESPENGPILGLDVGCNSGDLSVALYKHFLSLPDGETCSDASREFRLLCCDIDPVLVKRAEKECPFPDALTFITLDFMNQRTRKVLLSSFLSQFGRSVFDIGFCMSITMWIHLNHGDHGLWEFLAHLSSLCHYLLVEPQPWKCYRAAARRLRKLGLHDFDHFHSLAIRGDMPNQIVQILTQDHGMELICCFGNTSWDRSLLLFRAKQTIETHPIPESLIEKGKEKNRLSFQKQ
Summary of the method: (§1)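 Radiometric methyltransferase assays with ³H-SAM and substrate near apparent Km, compound tested at 1 and 10 μM. Methyl incorporation into biotinylated substrate read by scintillation proximity after guanidine quench; no-compound = 100%, no-enzyme = 0% activity.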

G9A = molecular target: T2, G9A (Homo sapiens, UniProt Q96KQ7)
T2 construct: gene EHMT2
T2 sequence (Q96KQ7 1-1210): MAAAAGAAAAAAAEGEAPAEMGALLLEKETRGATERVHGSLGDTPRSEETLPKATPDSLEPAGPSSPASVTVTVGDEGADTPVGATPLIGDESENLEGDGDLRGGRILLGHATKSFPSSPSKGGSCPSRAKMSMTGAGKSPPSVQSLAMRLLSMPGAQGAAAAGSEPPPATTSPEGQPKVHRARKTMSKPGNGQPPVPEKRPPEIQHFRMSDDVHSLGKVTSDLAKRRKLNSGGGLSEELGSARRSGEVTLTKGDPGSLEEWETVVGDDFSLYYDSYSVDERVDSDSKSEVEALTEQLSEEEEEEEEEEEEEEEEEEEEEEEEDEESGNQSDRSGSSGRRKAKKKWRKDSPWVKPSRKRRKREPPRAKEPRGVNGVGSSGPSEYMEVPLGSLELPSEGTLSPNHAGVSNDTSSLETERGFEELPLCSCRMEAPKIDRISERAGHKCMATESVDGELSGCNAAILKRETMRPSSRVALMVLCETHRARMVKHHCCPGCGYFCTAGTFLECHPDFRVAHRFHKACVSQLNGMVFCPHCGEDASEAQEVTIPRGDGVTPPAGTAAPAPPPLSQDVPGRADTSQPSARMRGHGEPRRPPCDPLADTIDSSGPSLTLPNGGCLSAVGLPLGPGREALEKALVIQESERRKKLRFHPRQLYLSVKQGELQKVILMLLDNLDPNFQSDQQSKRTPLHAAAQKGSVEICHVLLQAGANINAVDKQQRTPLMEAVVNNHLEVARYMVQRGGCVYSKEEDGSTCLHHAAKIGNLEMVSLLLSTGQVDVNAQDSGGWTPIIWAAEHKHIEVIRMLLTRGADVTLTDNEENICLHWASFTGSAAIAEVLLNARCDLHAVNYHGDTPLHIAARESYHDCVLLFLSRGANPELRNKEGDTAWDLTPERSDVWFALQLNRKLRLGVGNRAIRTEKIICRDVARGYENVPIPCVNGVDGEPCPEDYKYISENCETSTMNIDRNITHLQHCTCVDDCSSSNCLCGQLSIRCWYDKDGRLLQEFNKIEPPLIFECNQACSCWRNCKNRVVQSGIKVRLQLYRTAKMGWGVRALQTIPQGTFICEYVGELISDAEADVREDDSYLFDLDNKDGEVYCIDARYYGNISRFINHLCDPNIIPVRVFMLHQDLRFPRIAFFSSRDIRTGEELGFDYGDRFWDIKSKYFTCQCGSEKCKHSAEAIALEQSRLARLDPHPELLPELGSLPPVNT
Summary of the method: as §1

PRMT4 = molecular target: T3, PRMT4 (Homo sapiens, UniProt Q86X55)
T3 construct: gene CARM1
T3 sequence (Q86X55 1-608): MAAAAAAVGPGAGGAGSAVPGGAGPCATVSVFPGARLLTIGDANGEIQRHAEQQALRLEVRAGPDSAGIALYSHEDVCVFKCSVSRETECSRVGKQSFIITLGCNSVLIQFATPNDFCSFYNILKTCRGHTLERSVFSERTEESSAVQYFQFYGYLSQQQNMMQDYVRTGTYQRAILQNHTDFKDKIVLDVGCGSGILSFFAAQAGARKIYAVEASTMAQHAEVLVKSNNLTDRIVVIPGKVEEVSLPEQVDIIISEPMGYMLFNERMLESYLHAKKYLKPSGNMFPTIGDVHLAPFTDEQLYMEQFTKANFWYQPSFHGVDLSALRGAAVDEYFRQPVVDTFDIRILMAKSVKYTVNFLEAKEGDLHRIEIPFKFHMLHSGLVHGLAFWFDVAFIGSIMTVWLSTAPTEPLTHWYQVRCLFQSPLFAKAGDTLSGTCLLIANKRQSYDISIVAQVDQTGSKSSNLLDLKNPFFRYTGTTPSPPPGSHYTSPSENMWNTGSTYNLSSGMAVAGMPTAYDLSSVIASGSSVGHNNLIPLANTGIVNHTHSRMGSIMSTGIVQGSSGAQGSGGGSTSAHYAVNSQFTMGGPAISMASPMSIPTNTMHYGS
Summary of the method: as §1

| SMILES | remaining activity at 1 µM (BCDIN3D) [%] | remaining activity at 10 µM (BCDIN3D) [%] | remaining activity at 1 µM (G9A) [%] | remaining activity at 10 µM (G9A) [%] | remaining activity at 1 µM (PRMT4) [%] | remaining activity at 10 µM (PRMT4) [%] |
| --- | --- | --- | --- | --- | --- | --- |
| CC1(C)O[C@@H]2[C@H](O1)[C@@H](CSCCCCNCc1cccc(-c3ccc(Cl)cc3)c1)O[C@H]2n1cnc2c(N)ncnc21 [SGC8158N] | 96 | 94 | 99 | 98 | 101 | 100 |
| Nc1ncnc2c1ncn2[C@@H]1O[C@H](CSCCCCNCc2cccc(-c3ccc(Cl)cc3)c2)[C@@H](O)[C@H]1O [SGC8158] | 55 | 11 | 100 | 99 | 7 | 0 |
